# Test system: Protococcus
# Test: Growth of Protococcus liquid cultures monitored at Absorbance 550 nm
# Format: cell-based
# Conditions: Protococcus in water
# Description: Liquid cultures were established in the laboratory from the algae specimens collected to include three experimental treatments, which were: A control of Protococcus in water; • 1). Protococcus in water supplemented with 0.5% methanol, which is known to stimulate growth of PPFM bacteria; and • 2) Protococcus in water supplemented with a Vitamin B12 overproducing PPFM. The growth of the cultures was monitored at Absorbance 550 nm with the results below in Table 2 being obtained: […]
structure (smiles),measurement,setting,value
"CO [Methanol, methanol]",A550 nm,After One Week,0.094
same,A550 nm,After Two Weeks,0.085
same,A550 nm,Start,0.069

# From US20110269219A1, “Method for increasing algae growth and the use thereof in production of algae-derived biofuels and other chemical” (GST Growth, LLC, priority 2010, published 2011)
